Assay results reported in PMC10186300 (Scientific Reports, 2023).
Values joined by “and” are separate entries in the source; they are usually repeats but may differ in a detail not shown here. Equal values may be shown once. Residues, ends and D or L forms follow the SMILES beside them. *: point of attachment. Dansyl = CN(C)c1cccc2c(S(=O)(=O)*)cccc12

Legend:
PDZ2 domain of ZO1 [1] = target: T1, PDZ2 domain of ZO1 (Homo sapiens, UniProt Q07157, F207W); experiment: biochemical; format: binding; settings: pH 7
PDZ2 domain of ZO1 [2] = target: T1, PDZ2 domain of ZO1; experiment: biochemical; format: binding

T1 sequence (Q07157 186-264 F207W limits assumed): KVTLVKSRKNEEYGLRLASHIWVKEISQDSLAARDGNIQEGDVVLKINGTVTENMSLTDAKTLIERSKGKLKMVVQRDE

Molecule | koff (PDZ2 domain of ZO1 [1]) | Kd (PDZ2 domain of ZO1 [2]) | change in fluorescence upon binding (negative control) (PDZ2 domain of ZO1 [2]; pH 7)
CC(C)C[C@H](NC(=O)[C@@H]1CCCN1C(=O)[C@@H]1CCCN1C(=O)[C@H](CCCCN)NC(=O)[C@H](CO)NS(=O)(=O)c1cccc2c(N(C)C)cccc12)C(=O)N1CCC[C@H]1C(=O)N1CCC[C@H]1C(=O)N[C@@H](CC(=O)O)C(=O)N[C@@H](CCC(=O)O)C(=O)N[C@@H](Cc1c[nH]c2ccccc12)C(=O)N[C@H](C(=O)O)C(C)C [MERS-CoV E peptide] (Dansyl-SKPPLPPDEWV-OH) | 154 ± 3 s⁻¹ | 14 ± 1 µM | –
CC(C)C[C@H](NC(=O)[C@H](CC(=O)O)NC(=O)[C@@H]1CCCN1C(=O)[C@@H](NC(=O)CNC(=O)[C@H](CCC(=O)O)NC(=O)[C@H](CO)NC(=O)[C@H](CO)NC(=O)[C@H](CC(N)=O)NS(=O)(=O)c1cccc2c(N(C)C)cccc12)C(C)C)C(=O)N[C@@H](CC(C)C)C(=O)N[C@H](C(=O)O)C(C)C [SARS-CoV E peptide] (Dansyl-NSSEGVPDLLV-OH) | 9 s⁻¹ and 7.0 ± 0.1 s⁻¹ and 6.9 ± 0.1 s⁻¹ and 6.2 ± 0.1 s⁻¹ | 4.7 µM and 5 µM and 8.6 µM | –
CC(C)C[C@H](NC(=O)[C@H](CC(=O)O)NC(=O)[C@@H]1CCCN1C(=O)[C@@H](NC(=O)[C@H](CCCNC(=N)N)NC(=O)[C@H](CO)NC(=O)[C@H](CO)NC(=O)[C@H](CC(N)=O)NS(=O)(=O)c1cccc2c(N(C)C)cccc12)C(C)C)C(=O)N[C@@H](CC(C)C)C(=O)N[C@H](C(=O)O)C(C)C [SARS-CoV-2 E peptide] (Dansyl-NSSRVPDLLV-OH) | 9.5 s⁻¹ and 8.7 ± 0.2 s⁻¹ and 6.8 ± 0.1 s⁻¹ and 9.1 ± 0.2 s⁻¹ | 15.8 µM and 17.4 µM and 15.2 µM | –
ENVGLMQQQK [reference compound] | – | – | no change in fluorescence upon binding
